Laboratory results: US20260138992A1, “LUR[…] FORM AND METHOD FOR PREPARING SAME” (priority 2022, published 2026)
Read-outs that look alike come from different tables or passages of the source.

Assays:
[1] = during its manipulation; cited from earlier work
[2] = Applicant's experimental study of the stability of crystal Form A of CN114940682A; format: physicochemical
[3] = Observation of electrostatic properties of the crystal forms (glass bottle storage, weighing); format: physicochemical; details: for electrostatic effect (sticking to scoop and weighing paper): during the weighing; for wall-hanging phenomenon: stored in a glass bottle
[4] = format: physicochemical; details: for chemical stability (assessment in words) / physical stability (assessment in words): 10 days under long-term and accelerated conditions; for product purity: after 10 days at 25° C./60% RH and 40° C./75% RH; for purity: sealed and stored at −20° C. for 120 days
[5] = Stability test of crystal form I of lurbinectedin (XRPD and HPLC purity after storage); format: physicochemical
[6] = 10 days under long-term (25° C./60% RH) and accelerated (40° C./75% RH) conditions
[7] = Group 6, sealed and stored at −20° C. for 120 days
[8] = Group 2, kept in dark, sealed, 2-8° C. for 12 months
[9] = Group 3, kept in dark, sealed, −20° C. for 20 months
[10] = stored at −20° C. in the dark and sealed, and at 2-8° C. in the dark and sealed

SMILES	electrostatic effect (sticking to scoop and weighing paper) [3]	wall-hanging phenomenon [3]	XRPD crystal form [4, 6]	chemical stability (assessment in words) [4]	physical stability (assessment in words) [4]	HPLC purity ([4]; Group 1, 0 day) [%]	HPLC purity ([4]; Group 2, 25° C./60% RH-5 days) [%]	HPLC purity ([4]; Group 3, 25° C./60% RH-10 days) [%]	HPLC purity ([4]; Group 4, 40° C./75% RH-5 days) [%]	HPLC purity ([4]; Group 5, 40° C./75% RH-10 days) [%]	HPLC purity [4, 7] [%]	product purity [4]	purity [4]	XRPD crystal form ([4]; sealed, −20° C. for 120 days)	also measured
COc1ccc2[nH]c3c(c2c1)CCN[C@]31CS[C@@H]2c3c(OC(C)=O)c(C)c4c(c3[C@H](COC1=O)N1[C@@H]2[C@H]2c3c(cc(C)c(OC)c3O)C[C@@H]([C@@H]1O)N2C)OCO4 [Form A, lurbinectedin]															static electricity [1]: has static electricity
COc1ccc2[nH]c3c(c2c1)CCN[C@]31CS[C@@H]2c3c(OC(C)=O)c(C)c4c(c3[C@H](COC1=O)N1[C@@H]2[C@H]2c3c(cc(C)c(OC)c3O)C[C@@H]([C@@H]1O)N2C)OCO4 [crystal Form A, lurbinectedin]															stability of the crystal form ([2]; at room temperature, converts into other crystal forms readily): highly unstable; stability of the crystal form ([2]; at −20° C.): stable
COc1ccc2[nH]c3c(c2c1)CCN[C@]31CS[C@@H]2c3c(OC(C)=O)c(C)c4c(c3[C@H](COC1=O)N1[C@@H]2[C@H]2c3c(cc(C)c(OC)c3O)C[C@@H]([C@@H]1O)N2C)OCO4 [crystal form B, lurbinectedin, reference compound]	obvious electrostatic effect	exhibits wall-hanging phenomenon	remained unchanged	relatively poor	excellent	99.62	99.44	99.05	99.13	99.24	99.60	decreased	above 99%	remained unchanged	XRPD crystal form ([4]; 10 days under long-term (25° C./60% RH) and accelerated (40° C./75% RH) conditions, listed as Crystal form B): unchanged for 10; XRPD crystal form ([4]; sealed, −20° C. for 120 days, listed as Crystal form B): unchanged
COc1ccc2[nH]c3c(c2c1)CCN[C@]31CS[C@@H]2c3c(OC(C)=O)c(C)c4c(c3[C@H](COC1=O)N1[C@@H]2[C@H]2c3c(cc(C)c(OC)c3O)C[C@@H]([C@@H]1O)N2C)OCO4 [crystal form I, lurbinectedin]	do not show electrostatic effect or the effect is not obvious	no wall-hanging phenomenon or the phenomenon is not obvious													Crystal form of lurbinectedin (XRPD) ([5]; Group 1, initial moment): crystal form I; HPLC purity ([5]; Group 1, initial moment): 99.91%; Crystal form of lurbinectedin (XRPD) [5, 8]: crystal form I; HPLC purity [5, 8]: 99.68%; Crystal form of lurbinectedin (XRPD) [5, 9]: crystal form I; HPLC purity [5, 9]: 99.65%; time the crystal form remains stable ([5]; stored at 2-8° C. or −20° C.): at least 12 months; crystal form [5, 10]: remained unchanged; product purity [5, 10]: above 99%
COc1ccc2[nH]c3c(c2c1)CCN[C@]31CS[C@@H]2c3c(OC(C)=O)c(C)c4c(c3[C@H](COC1=O)N1[C@@H]2[C@H]2c3c(cc(C)c(OC)c3O)C[C@@H]([C@@H]1O)N2C)OCO4 [crystal form II, lurbinectedin]	do not show electrostatic effect or the effect is not obvious	no wall-hanging phenomenon or the phenomenon is not obvious	remained unchanged	excellent	excellent	99.59	99.40	99.41	99.41	99.41	99.58	above 99%	above 99%	remained unchanged	XRPD crystal form ([4]; sealed, −20° C. for 120 days, listed as Crystal form II): unchanged
COc1ccc2[nH]c3c(c2c1)CCN[C@]31CS[C@@H]2c3c(OC(C)=O)c(C)c4c(c3[C@H](COC1=O)N1[C@@H]2[C@H]2c3c(cc(C)c(OC)c3O)C[C@@H]([C@@H]1O)N2C)OCO4 [crystal form III, lurbinectedin]	do not show electrostatic effect or the effect is not obvious	no wall-hanging phenomenon or the phenomenon is not obvious	remained unchanged	excellent	excellent	99.61	99.48	99.42	99.48	99.37	99.60	above 99%	above 99%	remained unchanged	XRPD crystal form ([4]; sealed, −20° C. for 120 days, listed as Crystal form III): unchanged
COc1ccc2[nH]c3c(c2c1)CCN[C@]31CS[C@@H]2c3c(OC(C)=O)c(C)c4c(c3[C@H](COC1=O)N1[C@@H]2[C@H]2c3c(cc(C)c(OC)c3O)C[C@@H]([C@@H]1O)N2C)OCO4 [crystal form IV, lurbinectedin]	do not show electrostatic effect or the effect is not obvious	no wall-hanging phenomenon or the phenomenon is not obvious	remained unchanged	excellent	excellent	99.90	99.86	99.74	99.79	99.78	99.91	above 99%	above 99%	remained unchanged	XRPD crystal form ([4]; sealed, −20° C. for 120 days, listed as Crystal form IV): unchanged
COc1ccc2[nH]c3c(c2c1)CCN[C@]31CS[C@@H]2c3c(OC(C)=O)c(C)c4c(c3[C@H](COC1=O)N1[C@@H]2[C@H]2c3c(cc(C)c(OC)c3O)C[C@@H]([C@@H]1O)N2C)OCO4 [crystal form V, lurbinectedin]	do not show electrostatic effect or the effect is not obvious	no wall-hanging phenomenon or the phenomenon is not obvious													
